System: moderately differentiated intrahepatic cholangiocarcinoma
Experiment: Clinical case: treatment of a patient with metastatic intrahepatic cholangiocarcinoma, drugs chosen by Oncobox rating
Assay type: in vivo, human
Text: The patient was diagnosed in October 2015 with the following symptoms: moderate body weight loss, pain in right hypochondrium, loss of appetite and asthenia, with 70% Karnovsky index. […] The tumour was not surgically excised due to advanced stage, several intrahepatic masses and lung metastasis.
At first, total RNA was isolated from tumour sample and used to measure expression levels for 2,163 genes with CustomArray Inc. (USA) equipment using the microarray hybridization method. These 2,163 genes participate in major human signalling pathways associated with cancer, and also act as the molecular targets of anti-cancer medicinal products. Liver samples without pathological characteristics were taken from healthy donors and used as normal tissue controls. Using the Oncobox algorithm, the rating of target drugs was formed according to the BES values obtained (Table 2).

For CNC(=O)c1cc(Oc2ccc(NC(=O)Nc3ccc(Cl)c(C(F)(F)F)c3)cc2)ccn1 [Sorafenib], the “tumour status on MRI according to RECIST classification” value (Sorafenib from May 2016, MRI October 2016) was “stable disease”, the period till progression (Sorafenib from May 2016, progressing tumour on MRI January 2017) was “about 6 months” and the “symptom change after treatment” value (after treatment with Sorafenib) was “pain elimination in right hypochondrium”. For the same compound, the adverse effects (patient on Sorafenib) was “reddening, edema, pains in palms of the hands and bottoms of the feet”.

Source: patent US11614434B2, “Genetic information analysis platform oncobox” (Obschestvo s ogranichennoi otvetstvennostyu “Oncobox”, priority 2018, dated 2023)
